The source of these data is paper PMC6759758, “Cofactor Selectivity in Methylmalonyl Coenzyme A Mutase, a Model Cobamide-Dependent Enzyme” (mBio, 2019).

One assay concerns the target VpMCM (V. parvula MCM) (Veillonella parvula, UniProt A0A124EFR6). Nature of the assay: Fluorescence binding assay, VpMCM. As to conditions: fitted curve, error = standard error of the curve fit; equimolar α and β subunits. How it is done:
The α subunit of VpMCM (encoded by Vpar_RS09005) was expressed with an N-terminal 6×His tag from the pET-Duet expression vector in E. coli BL21(DE3). Protein expression was induced with 520 μM IPTG for 6 h at 30°C. The protein was batch purified by nickel affinity and subsequently purified by FPLC using a HiTrapQ column with an NaCl gradient from 50 to 500 mM in […], pH 8.0, 10% glycerol. The β subunit of VpMCM (encoded by Vpar_RS09000) was expressed separately with an N-terminal 6×His tag from the pET-Duet expression vector in E. coli BL21(DE3). […] Purified protein was dialyzed into 25 mM Tris-HCl, pH 8.0, 300 mM NaCl, 10% glycerol, and 1 mM β-mercaptoethanol. Concentration of pure α and β subunits (Fig. S7) was determined by absorbance at 280 nm (A280) using the theoretically calculated extinction coefficients 75,290 M^−1 cm^−1 and 74,260 M^−1 cm^−1, respectively ([125]). Equimolar amounts of α and β subunits were combined during the setup of fluorescence binding assays.
(§1) All steps involving cobamides were conducted in the dark. The plate was centrifuged for 1 min at 3,800 rpm to level the surface of the liquid in each well. The plate was then incubated for 40 min at 30°C to allow binding, with a brief shaking step after 30 min. […] Following incubation, fluorescence emission at 340 nm (5-nm slit width) was measured upon excitation at 282 nm (5-nm slit width) using a Tecan Infinite M1000 Pro plate reader. Fluorescence, normalized to the initial value, was plotted as a function of cobamide concentration, and fitted to the following equation ([134]): F/F0=1+ΔFmax/F0([E]+[L]+Kd)−([E]+[L]+Kd)^2−4[E][L]/2[E] where F is fluorescence, F0 is initial fluorescence, [E] is total enzyme concentration, [L] is total ligand concentration, and Kd is the binding dissociation constant.

The target in assay [1] is T1, SmMCM (Sinorhizobium meliloti MCM) (Rhizobium meliloti, UniProt O86028).
T1 construct: made in house; host or cells: E. coli BL21(DE3)pLysS
T1 sequence (O86028 2-712): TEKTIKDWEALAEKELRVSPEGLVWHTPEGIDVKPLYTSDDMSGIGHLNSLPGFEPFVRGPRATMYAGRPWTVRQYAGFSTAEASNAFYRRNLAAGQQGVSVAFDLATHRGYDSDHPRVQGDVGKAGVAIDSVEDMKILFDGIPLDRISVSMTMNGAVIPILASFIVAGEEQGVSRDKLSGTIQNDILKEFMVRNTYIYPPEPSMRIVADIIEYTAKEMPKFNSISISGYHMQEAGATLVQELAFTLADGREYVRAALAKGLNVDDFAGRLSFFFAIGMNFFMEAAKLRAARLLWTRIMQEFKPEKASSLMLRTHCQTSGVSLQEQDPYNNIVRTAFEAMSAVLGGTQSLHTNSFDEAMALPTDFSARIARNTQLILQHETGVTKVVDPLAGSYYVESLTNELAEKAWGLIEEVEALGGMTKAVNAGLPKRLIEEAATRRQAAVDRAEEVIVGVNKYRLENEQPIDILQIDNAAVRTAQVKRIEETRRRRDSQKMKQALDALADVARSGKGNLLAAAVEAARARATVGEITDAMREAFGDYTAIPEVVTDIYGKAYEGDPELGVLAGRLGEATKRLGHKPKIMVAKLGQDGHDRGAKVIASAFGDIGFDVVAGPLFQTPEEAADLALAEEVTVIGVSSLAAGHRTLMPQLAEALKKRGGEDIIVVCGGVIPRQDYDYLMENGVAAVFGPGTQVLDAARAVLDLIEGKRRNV
The experiment in a line: Thiokinase-coupled spectrophotometric MCM activity assay. To be noted: SmMCM 50 nM reconstituted with 2 μM cobamide; (R)-methylmalonyl-CoA to succinyl-CoA, steady state, 30°C. The class given is biochemical. How it is done:
Final concentrations of reagents in the assays were as follows: Tris-phosphate buffer (pH 7.5), 100 mM Tris, 50 mM phosphate; dithionitrobenzoate (DTNB), 400 μM; ADP, 1 mM; MgCl2, 10 mM; (R)-methylmalonyl-CoA, 0 to 4 mM; thiokinase, 5 μM; MCM, 50 nM; and cobamides, 2 μM.
Three separate mixes were prepared, all in 1× Tris-phosphate buffer: an assay mix containing DTNB, ADP, and MgCl2; a substrate mix containing (R)-methylmalonyl-CoA; and an enzyme mix containing thiokinase, MCM, and cobamides. All steps involving cobamides were conducted in the dark. The assay and enzyme mixes were prepared as a master mix and aliquoted into 96-well plates; substrate mixes were prepared in individual wells, in triplicate. All components were incubated at 30°C for 40 min to equilibrate temperature and allow prebinding of cobamides and MCM. After incubation, one replicate at a time, the substrate mix was added to the assay mix, followed by the enzyme mix. Absorbance at 412 nm (A412) was recorded immediately after addition of enzyme and for 1 to 3 min, every 3 s, on a BioTek Synergy 2 plate reader. The increase in A412 in reaction mixtures lacking substrate was subtracted from all readings, to account for reactivity of DTNB with thiols on protein surfaces.

Assay [2] has as its target T2, SmMCM (methylmalonyl-CoA mutase from S. meliloti) (Rhizobium meliloti, UniProt O86028).
T2 construct: made in house; host or cells: E. coli BL21(DE3)pLysS
T2 sequence (O86028 2-712): T1 sequence (O86028 2-712)
Nature of the assay: biochemical. The class given is binding, Sinorhizobium meliloti. As to conditions: SmMCM 0.2 μM, pH 7.5, 30°C; average and standard deviation for three or more independent experiments; n. d. = binding too weak to determine Kd. How it is done: as §1

In another assay the target is T3, EcMCM (E. coli MCM) (Escherichia coli, UniProt P27253).
T3 construct: 6xHis (N); made in house; host or cells: E. coli BL21(DE3)
The experiment in a line: Fluorescence binding assay, EcMCM. As to conditions: read-out: Kd EcMCM; fitted curve, error = standard error of the curve fit. How it is done:
as §1

Assay [3] relates to S. meliloti cobD::gus Gm^r metH::Tn5 ΔnrdJ pMS03-nrdABEc^+. The experiment in a line: MCM-dependent growth of S. meliloti on isoleucine/valine. The class given is cell-based, Sinorhizobium meliloti. As to conditions: for EC50 fold higher than CNCbl: MCM-dependent growth; for EC50: OD600 at 145 h, L-isoleucine and L-valine as sole carbon sources, average and SD for five or more biological replicates, read-out: EC50 (concentration required to achieve half of the maximal OD600). How it is done: Because nrdJ is essential, the E. coli cobamide-independent ribonucleotide reductase encoded by nrdA and nrdB was expressed from the pMS03 plasmid ([143]). The strain was precultured in M9 medium ([144]) (modified concentration of MgSO4: 1 mM) containing 0.1% sucrose, 2 g/liter isoleucine, 2 g/liter valine, 1 g/liter methionine, and 20 μg/ml gentamicin, with shaking at 30°C. After 2 days, cells were washed and diluted to an OD600 of 0.02 into M9 medium containing 4 g/liter isoleucine, 4 g/liter valine, 1 g/liter methionine, 20 μg/ml gentamicin, and cobamides at various concentrations as indicated for each experiment, in 384-well plates. The plates were incubated at 30°C for 145 h in a BioTek Synergy 2 plate reader with linear shaking at 1,140 cpm. OD600 was measured in 1-h increments.

T3 sequence (P27253 whole entry): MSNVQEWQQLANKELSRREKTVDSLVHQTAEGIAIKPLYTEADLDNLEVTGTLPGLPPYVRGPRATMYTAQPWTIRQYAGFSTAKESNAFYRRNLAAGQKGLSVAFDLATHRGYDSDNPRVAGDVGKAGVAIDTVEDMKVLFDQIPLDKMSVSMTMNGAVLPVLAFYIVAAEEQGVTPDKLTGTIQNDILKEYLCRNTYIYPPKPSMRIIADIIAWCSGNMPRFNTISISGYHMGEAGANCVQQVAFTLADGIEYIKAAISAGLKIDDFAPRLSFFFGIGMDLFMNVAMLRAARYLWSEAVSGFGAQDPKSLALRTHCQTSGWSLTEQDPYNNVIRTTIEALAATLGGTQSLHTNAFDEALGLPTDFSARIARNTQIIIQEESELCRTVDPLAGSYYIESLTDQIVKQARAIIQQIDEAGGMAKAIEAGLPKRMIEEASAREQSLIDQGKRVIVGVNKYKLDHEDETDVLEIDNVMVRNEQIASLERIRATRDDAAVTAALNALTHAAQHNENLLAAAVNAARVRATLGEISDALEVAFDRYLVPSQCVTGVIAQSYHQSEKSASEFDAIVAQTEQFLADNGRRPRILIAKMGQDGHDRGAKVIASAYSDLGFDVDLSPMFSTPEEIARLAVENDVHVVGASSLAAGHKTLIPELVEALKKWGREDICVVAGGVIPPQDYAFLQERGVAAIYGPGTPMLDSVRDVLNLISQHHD
Chain of VpMCM (V. parvula MCM) (A0A124EFR6 entry or part of it): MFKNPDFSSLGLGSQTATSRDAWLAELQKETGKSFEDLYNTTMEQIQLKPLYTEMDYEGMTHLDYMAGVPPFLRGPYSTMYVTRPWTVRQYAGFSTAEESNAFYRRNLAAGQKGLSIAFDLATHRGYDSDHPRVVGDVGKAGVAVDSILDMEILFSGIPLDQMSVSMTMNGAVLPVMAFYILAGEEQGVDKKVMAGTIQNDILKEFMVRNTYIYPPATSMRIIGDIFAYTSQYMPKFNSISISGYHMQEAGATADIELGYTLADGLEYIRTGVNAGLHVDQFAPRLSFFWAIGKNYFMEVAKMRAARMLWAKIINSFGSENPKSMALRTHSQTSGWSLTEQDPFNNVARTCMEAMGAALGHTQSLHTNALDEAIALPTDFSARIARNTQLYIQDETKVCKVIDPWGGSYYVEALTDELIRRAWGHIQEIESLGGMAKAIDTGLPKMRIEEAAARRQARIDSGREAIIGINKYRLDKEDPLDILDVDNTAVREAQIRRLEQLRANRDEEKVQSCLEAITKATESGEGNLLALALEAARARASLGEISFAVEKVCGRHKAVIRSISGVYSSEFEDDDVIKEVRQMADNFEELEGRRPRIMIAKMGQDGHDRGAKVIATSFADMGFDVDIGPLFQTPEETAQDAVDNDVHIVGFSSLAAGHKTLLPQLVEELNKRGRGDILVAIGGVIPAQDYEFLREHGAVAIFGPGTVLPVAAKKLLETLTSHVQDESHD

For `C/C1=C2/[N-][C@H]([C@H](CC(N)=O)[C@@]2(C)CCC(=O)NC[C@@H](C)OP(=O)([O-])O[C@H]2[C@@H](O)[C@@H](Oc3ccc(C)cc3)O[C@@H]2CO)[C@]2(C)N=C(/C(C)=C3N=C(/C=C4N=C1[C@@H](CCC(N)=O)C\4(C)C)[C@@H](CCC(N)=O)[C@]\3(C)CC(N)=O)[C@@H](CCC(N)=O)[C@]2(C)CC(N)=O.[CH2-][C@H]1O[C@@H](n2cnc3c(N)ncnc32)[C@H](O)[C@@H]1O.[Co+3]` [Ado[Cre]Cba, para-Cresolylcobamide], the Kd (in general, the free concentration of one partner at which half of the binding sites on the other are occupied at equilibrium, for simple one-to-one binding) at VpMCM (V. parvula MCM) was found to be 1300 ± 100 nM; in assay [2], 50 ± 10 nM; on EcMCM (E. coli MCM), 620 ± 90 nM. For the same compound, in assay [1], the kcat – broadly, the number of substrate molecules converted per active site and unit of time at saturation – came out at 15 ± 1 s⁻¹. With Benzimidazolylcobamide [CN[Bza]Cba], in assay [3], the “EC50 fold higher than CNCbl” value was found to be 5 fold and the EC50 came out at 27 ± 7 nM. “cyanocobalamin [CNCbl, reference compound]”: the EC50 in assay [3] turned out to be 5 ± 1 nM. For Phenolylcobamide [CN[Phe]Cba], the EC50 in assay [3] amounted to 400 ± 100 nM. In assay [2], `C/C1=C2/[N-][C@H]([C@H](CC(N)=O)[C@@]2(C)CCC(=O)NC[C@@H](C)OP(=O)([O-])O[C@H]2[C@@H](O)[C@@H](n3cnc4cccc(C)c43)O[C@@H]2CO)[C@]2(C)N=C(/C(C)=C3N=C(/C=C4N=C1[C@@H](CCC(N)=O)C\4(C)C)[C@@H](CCC(N)=O)[C@]\3(C)CC(N)=O)[C@@H](CCC(N)=O)[C@]2(C)CC(N)=O.[CH2-][C@H]1O[C@@H](n2cnc3c(N)ncnc32)[C@H](O)[C@@H]1O.[Co+3]` [Ado[7-MeBza]Cba, 7-Methylbenzimidazolylcobamide] yielded a Kd of 100 ± 20 nM. In the case of Purinylcobamide [CN[Pur]Cba], the EC50 in assay [3] is 600 ± 200 nM.

For the compound “5-Hydroxybenzimidazolylcobamide [CN[5-OHBza]Cba]”, in assay [3], the EC50 stood at 400 ± 100 nM. Still for that read-out and setting: for `C#N.C/C1=C2/N[C@H]([C@H](CC(N)=O)[C@@]2(C)CCC(=O)NC[C@@H](C)OP(=O)(O)O[C@H]2[C@@H](O)[C@@H](n3cnc4ncnc(N)c43)O[C@@H]2CO)[C@]2(C)N=C(/C(C)=C3N=C(/C=C4N=C1[C@@H](CCC(N)=O)C\4(C)C)[C@@H](CCC(N)=O)[C@]\3(C)CC(N)=O)[C@@H](CCC(N)=O)[C@]2(C)CC(N)=O.[Co]` [CN[Ade]Cba, Adeninylcobamide] the value was 350 ± 90 nM. For the compound `C/C1=C2/[N-][C@H]([C@H](CC(N)=O)[C@@]2(C)CCC(=O)NC[C@@H](C)OP(=O)([O-])O[C@H]2[C@@H](O)[C@@H](n3cnc4cc(C)ccc43)O[C@@H]2CO)[C@]2(C)N=C(/C(C)=C3N=C(/C=C4N=C1[C@@H](CCC(N)=O)C\4(C)C)[C@@H](CCC(N)=O)[C@]\3(C)CC(N)=O)[C@@H](CCC(N)=O)[C@]2(C)CC(N)=O.[CH2-][C@H]1O[C@@H](n2cnc3c(N)ncnc32)[C@H](O)[C@@H]1O.[Co+3]` [Ado[5-MeBza]Cba, 5-Methylbenzimidazolylcobamide], in assay [1], the kcat amounted to 12.8 ± 0.5 s⁻¹. In assay [2], this compound gave a Kd of 100 ± 40 nM. Take `C/C1=C2/[N-][C@H]([C@H](CC(N)=O)[C@@]2(C)CCC(=O)NC[C@@H](C)OP(=O)([O-])O[C@H]2[C@@H](O)[C@@H](Oc3ccccc3)O[C@@H]2CO)[C@]2(C)N=C(/C(C)=C3N=C(/C=C4N=C1[C@@H](CCC(N)=O)C\4(C)C)[C@@H](CCC(N)=O)[C@]\3(C)CC(N)=O)[C@@H](CCC(N)=O)[C@]2(C)CC(N)=O.[CH2-][C@H]1O[C@@H](n2cnc3c(N)ncnc32)[C@H](O)[C@@H]1O.[Co+3]` [Ado[Phe]Cba, Phenolylcobamide]: the Kd on VpMCM (V. parvula MCM) turned out to be 5000 ± 1000 nM; in assay [2], 200 ± 30 nM; at EcMCM (E. coli MCM) it was 1300 ± 200 nM. In addition, the kcat in assay [1] amounted to 8.3 ± 0.4 s⁻¹. As to `C/C1=C2/[N-][C@H]([C@H](CC(N)=O)[C@@]2(C)CCC(=O)NC[C@@H](C)OP(=O)([O-])O[C@H]2[C@@H](O)[C@@H](n3cnc4nc(C)nc(N)c43)O[C@@H]2CO)[C@]2(C)N=C(/C(C)=C3N=C(/C=C4N=C1[C@@H](CCC(N)=O)C\4(C)C)[C@@H](CCC(N)=O)[C@]\3(C)CC(N)=O)[C@@H](CCC(N)=O)[C@]2(C)CC(N)=O.[CH2-][C@H]1O[C@@H](n2cnc3c(N)ncnc32)[C@H](O)[C@@H]1O.[Co+3]` [Ado[2-MeAde]Cba, 2-Methyladeninylcobamide], the Kd on VpMCM (V. parvula MCM) amounted to 1500 ± 200 nM; in assay [2] it was 1700 ± 700 nM; at EcMCM (E. coli MCM), 350 ± 40 nM.

In the case of para-Cresolylcobamide [CN[Cre]Cba], the EC50 in assay [3] stood at 700 ± 100 nM. As to “2-Methyladeninylcobamide [CN[2-MeAde]Cba]”, in assay [3], the “EC50 fold higher than CNCbl” value stood at 5 fold and the EC50 worked out at 24 ± 9 nM. In turn, `C/C1=C2/[N-][C@H]([C@H](CC(N)=O)[C@@]2(C)CCC(=O)NC[C@@H](C)OP(=O)([O-])O[C@H]2[C@@H](O)[C@@H](n3cnc4cccc(N)c43)O[C@@H]2CO)[C@]2(C)N=C(/C(C)=C3N=C(/C=C4N=C1[C@@H](CCC(N)=O)C\4(C)C)[C@@H](CCC(N)=O)[C@]\3(C)CC(N)=O)[C@@H](CCC(N)=O)[C@]2(C)CC(N)=O.[CH2-][C@H]1O[C@@H](n2cnc3c(N)ncnc32)[C@H](O)[C@@H]1O.[Co+3]` [Ado[7-AmBza]Cba, 7-Aminobenzimidazolylcobamide] gave a Kd in assay [2] of 700 ± 100 nM.
